The term solubility denotes how much of the substance goes into solution per volume. Higher therefore signals a readily soluble substance.

Converted amounts (≈) assume the structure as drawn.

A short description of the first data set: Intrinsic solubility of the compound in water. The conditions noted are these: buffer.
Compound `NC(N)=Nc1nc(CSCCC(N)=NS(N)(=O)=O)cs1` [FAMOTIDINE] showed a solubility of 760 µg/mL (≈ 2250 µM).

In turn, `CN[C@H]1CC[C@@H](c2ccc(Cl)c(Cl)c2)c2ccccc21` [SERTRALINE] came in with a solubility of 4.5 µg/mL (≈ 14.7 µM).

Turning to `CNC(=C[N+](=O)[O-])NCCSCc1ccc(CN(C)C)o1` [RANITIDINE], the solubility was 990 µg/mL (≈ 3150 µM).

Consider `CC(C(=O)O)c1cccc(Oc2ccccc2)c1` (centres undefined) [FENOPROFEN], for which the solubility worked out at 48 µg/mL (≈ 198 µM).

Regarding `CC1CCc2cc(F)cc3c(=O)c(C(=O)O)cn1c23` (centres undefined) [FLUMEQUINE], the concentration in solution (solubility) was 48 µg/mL (≈ 184 µM).

As for `CN(C)C(=O)C(CCN1CCC(O)(c2ccc(Cl)cc2)CC1)(c1ccccc1)c1ccccc1` [LOPERAMIDE], the solubility stood at 0.04 µg/mL (≈ 0.0838 µM).

`O=C(O)c1cc(/N=N/c2ccc(S(=O)(=O)Nc3ccccn3)cc2)ccc1O` [SULFASALAZINE] displayed a solubility of 0.29 µg/mL (≈ 0.728 µM).

With `O=C(O)c1ccccc1O` [SALICYLIC ACID], the solubility turned out to be 1620 µg/mL (≈ 11700 µM).

Take `COc1ccccc1OCCNCC(O)COc1cccc2[nH]c3ccccc3c12` (centres undefined) [CARVEDILOL]: the solubility is 22.6 µg/mL (≈ 55.6 µM).

On to `CN1CCN(c2c(F)cc3c(=O)c(C(=O)O)cn4c3c2OCN4C)CC1` [MARBOFLOXACIN], for which the solubility entry is “Soluble”.

`O=C(O)c1ccccc1C(=O)O` [PHTHALIC ACID] came in with a solubility of 4130 µg/mL (≈ 24900 µM).

Consider `O=C(O)C(O)c1ccccc1Cl` (centres undefined), for which the solubility result is on record as “Soluble”.

With `CNCCCC12CCC(c3ccccc31)c1ccccc12` [MAPROTILINE], the solubility came out at 5.6 µg/mL (≈ 20.2 µM).

`Cc1ccc(Cl)c(Nc2ccccc2C(=O)O)c1Cl` [MECLOFENAMIC ACID] registered a solubility of 0.16 µg/mL (≈ 0.54 µM).

For `Cc1cccc(CN2CCN(C(c3ccccc3)c3ccc(Cl)cc3)CC2)c1` (centres undefined) [MECLIZINE], the solubility amounted to 0.13 µg/mL (≈ 0.333 µM).

`CN(C)CCCN1c2ccccc2Sc2ccc(Cl)cc21` [CHLORPROMAZINE]: the solubility is 2.7 µg/mL (≈ 8.47 µM).

As for `CCN(CC)CCNC(=O)c1ccc(N)cc1` [PROCAINAMIDE], the solubility entry is “Soluble”.

`CNCCC=C1c2ccccc2CCc2ccccc21` [NORTRIPTYLINE] yielded a solubility of 25 µg/mL (≈ 94.9 µM).

In the case of `O=c1[nH]cc(F)c(=O)[nH]1` [FLUOROURACIL], the solubility entry is on record as “Soluble”.

On to `CC(=O)CC(c1ccccc1)c1c(O)c2ccccc2oc1=O` (centres undefined) [WARFARIN], for which the solubility was 5.1 µg/mL (≈ 16.5 µM).

Consider `O=C1CN(/N=C/c2ccc([N+](=O)[O-])o2)C(=O)N1` [NITROFURANTOIN], for which the solubility came to 137 µg/mL (≈ 575 µM).

`Cn1cnc([N+](=O)[O-])c1Sc1ncnc2nc[nH]c12` [AZATHIOPRINE] came in with a solubility of 172 µg/mL (≈ 620 µM).

In the case of `C[C@@H]1CN(c2c(F)c(F)c3c(=O)c(C(=O)O)cn(C4CC4)c3c2F)C[C@H](C)N1` [ORBIFLOXACIN], the solubility entry was “Soluble”.

Staying with this data set, now noted: water.
For `CC1=NS(=O)(=O)c2cc(Cl)ccc2N1` [DIAZOXIDE], the concentration in solution (solubility) came to 100 µg/mL (≈ 434 µM).

Take `c1ccc2[nH]c(-c3cscn3)nc2c1` [THIABENDAZOLE]: the solubility is 66 µg/mL (≈ 328 µM).

`CC(C(=O)O)c1ccc2c(c1)[nH]c1ccc(Cl)cc12` (centres undefined) [CARPROFEN] returned a solubility of 5.5 µg/mL (≈ 20.1 µM).

For `CCn1cc(C(=O)O)c(=O)c2cc(F)c(N3CCNC(C)C3)c(F)c21` (centres undefined) [LOMEFLOXACIN], the concentration in solution (solubility) was 1630 µg/mL (≈ 4640 µM).

`CCCNC(=O)NS(=O)(=O)c1ccc(Cl)cc1` [CHLORPROPAMIDE] came in with a solubility of 156 µg/mL (≈ 564 µM).

For the compound `Cc1cccc(Nc2ccccc2C(=O)O)c1C` [MEFENAMIC ACID], the solubility turned out to be 0.04 µg/mL (≈ 0.166 µM).

`Nc1ccc(/N=N/c2ccccc2)c(N)n1` [PHENAZOPYRIDINE] came in with a solubility of 13.7 µg/mL (≈ 64.2 µM).

`NC12CC3CC(CC(C3)C1)C2` [AMANTADINE] displayed a solubility of 2120 µg/mL (≈ 14000 µM).

In turn, `CCCCNC(=O)NS(=O)(=O)c1ccc(C)cc1` [TOLBUTAMIDE] came in with a solubility of 93 µg/mL (≈ 344 µM).

`O=c1n(CCCN2CCN(c3cccc(Cl)c3)CC2)nc2ccccn12` [TRAZODONE] had a solubility of 127 µg/mL (≈ 342 µM).

`CCc1nc(N)nc(N)c1-c1ccc(Cl)cc1` [PYRIMETHAMINE]: the solubility was 19.4 µg/mL (≈ 78 µM).

For `C#CCN(C)[C@H](C)Cc1ccccc1` [SELEGILINE], the concentration in solution (solubility) came to 575 µg/mL (≈ 3070 µM).

`CN1CCN(c2cc3c(cc2F)c(=O)c(C(=O)O)cn3-c2ccc(F)cc2)CC1` [DIFLOXACIN] returned a solubility of 100 µg/mL (≈ 250 µM).

In turn, `C=CCN1CC[C@]23c4c5ccc(O)c4O[C@H]2C(=O)CC[C@@]3(O)[C@H]1C5` [NALOXONE] registered a solubility of 414 µg/mL (≈ 1260 µM).

Compound `NS(=O)(=O)c1cc2c(cc1Cl)N=C(CSCc1ccccc1)NS2(=O)=O` [BENZTHIAZIDE] displayed a solubility of 6.4 µg/mL (≈ 14.8 µM).

`O=C(O)c1cc(-c2ccc(F)cc2F)ccc1O` [DIFLUNISAL] yielded a solubility of 0.29 µg/mL (≈ 1.16 µM).

On to `CC(C(=O)O)c1ccc(-c2ccccc2)c(F)c1` (centres undefined) [FLURBIPROFEN], for which the concentration in solution (solubility) was 17.2 µg/mL (≈ 70.4 µM).

Regarding `c1ccc(Cn2ccnc2)cc1` [BENZYLIMIDAZOLE], the solubility worked out at 874 µg/mL (≈ 5520 µM).

The compound `OCCN(CCO)c1nc(N2CCCCC2)c2nc(N(CCO)CCO)nc(N3CCCCC3)c2n1` [DIPYRIDAMOLE] yielded a solubility of 3.46 µg/mL (≈ 6.86 µM).

`Clc1ccc(COC(Cn2ccnc2)c2ccc(Cl)cc2Cl)c(Cl)c1` (centres undefined) [MICONAZOLE] came in with a solubility of 3.5 µg/mL (≈ 8.41 µM).

As for `Nc1ccc(Br)cc1C(=O)O`, the solubility came to 182 µg/mL (≈ 842 µM).

The compound `CN(C)CCCN1c2ccccc2CCc2ccccc21` [IMIPRAMINE] displayed a solubility of 22 µg/mL (≈ 78.5 µM).

The compound `O=C(O)c1ccc(O)cc1` [PARABEN] returned a solubility of 4740 µg/mL (≈ 34300 µM).

Compound `Oc1ccc(I)cc1` displayed a solubility of 4250 µg/mL (≈ 19300 µM).

As for `NS(=O)(=O)c1cc2c(cc1C(F)(F)F)NCNS2(=O)=O` [HYDROFLUMETHIAZIDE], the solubility worked out at 360 µg/mL (≈ 1090 µM).

In turn, `O=C1NC(=O)C(c2ccccc2)(c2ccccc2)N1` [PHENYTOIN] came in with a solubility of 35 µg/mL (≈ 139 µM).

Compound `CC(=O)OCC1=C(C(=O)O)N2C(=O)[C@@H](NC(=O)Cc3cccs3)[C@H]2SC1` [CEPHALOTHIN] gave a solubility of 457 µg/mL (≈ 1150 µM).

For `CCCN(CCC)S(=O)(=O)c1ccc(C(=O)O)cc1` [PROBENECID], the solubility worked out at 3.9 µg/mL (≈ 13.7 µM).

As to `Cc1ccc(C(=O)c2ccc(CC(=O)O)n2C)cc1` [TOLMETIN], the solubility is 21 µg/mL (≈ 81.6 µM).

`CN1C(C(=O)Nc2ccccn2)=C(O)c2ccccc2S1(=O)=O` [PIROXICAM] had a solubility of 5.2 µg/mL (≈ 15.7 µM).

The compound `CCCC(=O)Nc1ccc(OCC(O)CNC(C)C)c(C(C)=O)c1` (centres undefined) [ACEBUTOLOL] showed a solubility of 711 µg/mL (≈ 2110 µM).

In turn, `COc1ccc(Cc2nccc3cc(OC)c(OC)cc23)cc1OC` [PAPAVERINE] yielded a solubility of 46 µg/mL (≈ 136 µM).

Compound `CCN(CC)CCOC(=O)c1ccc(N)cc1` [PROCAINE] showed a solubility of 4500 µg/mL (≈ 19000 µM).

In turn, `C=CCc1ccccc1OCC(O)CNC(C)C` (centres undefined) [ALPRENOLOL] registered a solubility of 580 µg/mL (≈ 2330 µM).

Compound `C[C@@H]1CN(c2c(F)c(N)c3c(=O)c(C(=O)O)cn(C4CC4)c3c2F)C[C@H](C)N1` [SPARFLOXACIN] registered a solubility of 167 µg/mL (≈ 426 µM).

As for `CC(CN(C)C)CN1c2ccccc2CCc2ccccc21` (centres undefined) [TRIMIPRAMINE], the solubility was determined as 4.8 µg/mL (≈ 16.3 µM).

The compound `NCCc1c[nH]c2ccccc12` [TRYPTAMINE] came in with a solubility of 80 µg/mL (≈ 499 µM).

The compound `CCCCNc1ccc(C(=O)OCCN(C)C)cc1` [TETRACAINE] had a solubility of 258 µg/mL (≈ 976 µM).

Take `CCOC(=O)c1ccc(N)cc1` [BENZOCAINE]: the concentration in solution (solubility) was 780 µg/mL (≈ 4720 µM).

Take `CC(C)NCC(O)COc1cccc2[nH]ccc12` (centres undefined) [PINDOLOL]: the solubility came out at 40 µg/mL (≈ 161 µM).

Compound `CCn1cc(C(=O)O)c(=O)c2cc(F)c(N3CCNCC3)cc21` [NORFLOXACIN] gave a solubility of 559 µg/mL (≈ 1750 µM).

In the case of `O=C(O)c1cc(Br)c(O)cc1O`, the solubility came to 559 µg/mL (≈ 2400 µM).

In turn, `CN(C)CCC=C1c2ccccc2CCc2ccccc21` [AMITRIPTYLINE] displayed a solubility of 7.8 µg/mL (≈ 28.1 µM).

For `O=C(O)c1cn(-c2ccc(F)cc2)c2cc(N3CCNCC3)c(F)cc2c1=O` [SARAFLOXACIN], the solubility came to 280 µg/mL (≈ 727 µM).

In the case of `CNCCCN1c2ccccc2CCc2ccccc21` [DESIPRAMINE], the concentration in solution (solubility) came to 63 µg/mL (≈ 236 µM).

In turn, `CCN1CCN(c2cc3c(cc2F)c(=O)c(C(=O)O)cn3C2CC2)CC1` [ENROFLOXACIN] showed a solubility of 237 µg/mL (≈ 659 µM).

On to `Cc1nnc(NS(=O)(=O)c2ccc(N)cc2)s1` [SULFAMETHIZOLE], for which the solubility turned out to be 450 µg/mL (≈ 1660 µM).

`CCn1cc(C(=O)O)c(=O)c2ccc(C)nc21` [NALIDIXIC ACID] showed a solubility of 57 µg/mL (≈ 245 µM).

In turn, `CN1CCN(C2=Nc3cc(Cl)ccc3Nc3ccccc32)CC1` [CLOZAPINE] showed a solubility of 189 µg/mL (≈ 578 µM).

Compound `CCCCOc1cc(C(=O)NCCN(CC)CC)c2ccccc2n1` [DIBUCAINE] returned a solubility of 14 µg/mL (≈ 40.8 µM).

Regarding `Nc1nc2nc[nH]c2c(=O)[nH]1` [GUANINE], the concentration in solution (solubility) came to 5.6 µg/mL (≈ 37.1 µM).

The values above are taken from ChEMBL document CHEMBL1250533, “QSAR-based solubility model for drug-like compounds” (Bioorg Med Chem, 2010).
